Data from BindingDB's records for doi:10.1021/acs.biochem.5b00822 (The University of Kansas Medical Center, 2015).
Values joined by “and” are separate entries in the source; they are usually repeats but may differ in a detail not shown here. Equal values may be shown once.

What was measured:
Details in all cases: 25 °C
[1] = target: T1, Phosphoenolpyruvate carboxykinase, cytosolic [GTP] (Rattus norvegicus, UniProt P07379); test: PEPCK Assay (OAA to PEP-allosteric)
T1 sequence (P07379 whole entry): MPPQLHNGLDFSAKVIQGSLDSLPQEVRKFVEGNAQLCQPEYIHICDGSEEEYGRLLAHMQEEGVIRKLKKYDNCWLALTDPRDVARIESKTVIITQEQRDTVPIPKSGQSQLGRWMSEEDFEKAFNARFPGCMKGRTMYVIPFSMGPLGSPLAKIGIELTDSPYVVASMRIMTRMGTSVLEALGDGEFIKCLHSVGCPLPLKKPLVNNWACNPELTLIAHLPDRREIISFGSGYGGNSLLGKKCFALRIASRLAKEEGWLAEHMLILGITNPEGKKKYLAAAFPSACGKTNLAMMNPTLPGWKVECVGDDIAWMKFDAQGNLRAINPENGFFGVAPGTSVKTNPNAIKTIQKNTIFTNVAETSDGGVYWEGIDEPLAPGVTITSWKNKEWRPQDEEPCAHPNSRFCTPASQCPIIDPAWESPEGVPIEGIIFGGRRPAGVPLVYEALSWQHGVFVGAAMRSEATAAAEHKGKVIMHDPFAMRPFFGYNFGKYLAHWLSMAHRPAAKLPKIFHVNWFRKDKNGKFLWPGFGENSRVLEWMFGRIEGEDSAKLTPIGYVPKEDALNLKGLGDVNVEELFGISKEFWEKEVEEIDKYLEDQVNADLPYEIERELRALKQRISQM
Procedure: (§1) Allosteric binding site. The activity of PEPCK in the direction from OAA to PEP was assayed with 50 mM HEPES (pH 7.5), 10 mM DTT, 4 mM MgCl2, 0.5 mM GTP, 1 mM ADP, 187.5 μM NADH, 45 units of LDH, 50 μg of PK, 0.2 mM MnCl2, and (∼1−2 μg) of PEPCK. The assay mixture was incubated for 5 min at 25 °C and the reaction started with the addition of OAA to a final concentration of 350 μM. A second reaction without PEPCK was run simultaneously to account for the spontaneous decarboxylation of OAA. Inhibition assays with MPA were conducted under both variable OAA and variable GTP concentrations. When the GTP concentration was varied, MgCl2 concentrations were also varied to keep a constant 4:1 metal:nucleotide ratio.

[2] = target: T1, Phosphoenolpyruvate carboxykinase, cytosolic [GTP]; test: PEPCK Assay (PEP to OAA-allosteric)
Procedure: (§2) Allosteric binding site. When the enzyme was assayed in the direction of PEP →OAA, the standard reaction mixture contained 50 mM HEPES (pH 7.5), 2mMMnCl2, 10mMDTT, 0.5mMGDP, 2mMPEP, 187.5 μM NADH, 50 mM KHCO3, and 11 units of MDH. The reaction proceeded at 25 °C and was started with the addition of PEPCK (∼1−2 μg). Mutants were assayed as previously described with the exception that ~30 μg of enzyme was used to initiate the assay.14 Inhibition assays with MPA were conducted with varying concentrations of PEP with a fixed GDP concentration of 500 or 25 μM. Inhibition assays against GDP were conducted at a fixed concentration of PEP of 2 or 5 mM.

[3] = target: T1, Phosphoenolpyruvate carboxykinase, cytosolic [GTP]; test: PEPCK Assay (OAA to PEP)
Procedure: as §1, with “OAA/PEP” for “Allosteric”

[4] = target: T1, Phosphoenolpyruvate carboxykinase, cytosolic [GTP]; test: PEPCK Assay (PEP to OAA)
Procedure: as §2, with “OAA/PEP” for “Allosteric”

Ki [1]: 121 µM
Ki [2]: 180 µM and 83 µM
Ki [3]: 45 µM
Ki [4]: 83 µM and 37 µM
Structure (SMILES): O=C(O)c1ncccc1S [3-Mercaptopicolinic acid (MPA)]
